We go through 30 compounds from paper PMC8286840, “Identifying SARS-CoV-2 antiviral compounds by screening for small molecule inhibitors of Nsp3 papain-like protease” (Biochemical Journal, 2021).

In assay [1] the target is T1, SARS-CoV-2 PLpro (nsp3 1564–1878) (Severe acute respiratory syndrome coronavirus 2, UniProt P0DTD1). Description: biochemical. The arrangement: FRET-quenched peptide (Pro3) cleavage by PLpro, 10 min pre-incubation, slope over 20 min, normalised to no-compound control. The conditions noted are these: read-out: % of control remaining.
For assay [2], the target named is T1, SARS-CoV-2 PLpro (nsp3 1564–1878). Description: biochemical. Set-up: FRET-quenched peptide (Pro3) cleavage by PLpro, 10 min pre-incubation, slope over 20 min, normalised to no-compound control. The conditions noted are these: read-out: % of control remaining. This is another data set of the same source.

Counter-ions that a name gives are not always drawn. Like-named read-outs stand apart in the source and are kept apart here.

As for `COc1cc(C(=O)OCCCCNC(=N)N)cc(OC)c1O` [4-{[amino(imino)methyl]amino}butyl 4-hydroxy-3,5-dimethoxybenzoate], the remaining activity at 1.25 µM in assay [1] (Well no.=5718, low concentration screen) worked out at 93.5%. Further, in assay [2] (Well no.=5718, high concentration screen), the remaining activity at 3.75 µM came to 98.3%.
Regarding `CN1C(=O)C(c2c[nH]c3ccccc23)=C(c2c[nH]c3ccccc23)C1=O` [Bisindolylmaleimide V], the remaining activity at 1.25 µM in assay [1] (Well no.=2339, low concentration screen) was 92.9%. The remaining activity at 3.75 µM in assay [2] (Well no.=2339, high concentration screen) was determined as 91.1%.
For `C=C1C[C@@]23CC[C@H]4[C@@](C)(CCC[C@@]4(C)C(=O)O[C@@H]4O[C@H](CO)[C@@H](O)[C@H](O)[C@H]4O)[C@@H]2CC[C@]1(O[C@@H]1O[C@H](C)[C@@H](O)[C@H](O)[C@@H]1O[C@@H]1O[C@H](CO)[C@@H](O)[C@H](O[C@@H]2O[C@H](CO)[C@@H](O)[C@H](O)[C@H]2O)[C@H]1O)C3` [Rebaudioside C], in assay [1] (Well no.=8446, low concentration screen), the remaining activity at 1.25 µM turned out to be 96%. Further, the remaining activity at 3.75 µM in assay [2] (Well no.=8446, high concentration screen) was found to be 95.9%.
Regarding `NC(=O)c1ccc(I)c([N+](=O)[O-])c1` [Iniparib (BSI-201)], the remaining activity at 1.25 µM in assay [1] (Well no.=5011, low concentration screen) stood at 103%. In addition, in assay [2] (Well no.=5011, high concentration screen), the remaining activity at 3.75 µM came to 103%.
On to `O=C(/C=C/c1ccc(O)c(O)c1)c1ccc(O[C@@H]2O[C@H](CO)[C@@H](O)[C@H](O)[C@H]2O)c(O)c1O` [Marein], for which the remaining activity at 1.25 µM in assay [1] (Well no.=3731, low concentration screen) came to 91.7%. Besides, the remaining activity at 3.75 µM in assay [2] (Well no.=3731, high concentration screen) was 95.9%.
Consider `COCCCCCCCCCCCC(=O)O` [12-Methoxydodecanoic acid], for which the remaining activity at 1.25 µM is 96% in assay [1] (Well no.=4262, low concentration screen) and 101% in assay [1] (Well no.=4359, low concentration screen). Moreover, the remaining activity at 3.75 µM stood at 94.8% in assay [2] (Well no.=4262, high concentration screen) and 97.3% in assay [2] (Well no.=4359, high concentration screen).
As to `Cn1cnc2c(ncn2[C@@H]2O[C@H](CO)[C@@H](O)[C@H]2O)c1=N` [1-Methyladenosine], in assay [1] (Well no.=7121, low concentration screen), the remaining activity at 1.25 µM is 102%. Moreover, the remaining activity at 3.75 µM in assay [2] (Well no.=7121, high concentration screen) was determined as 98.5%.
For `Nc1nc(Nc2ccc(S(N)(=O)=O)cc2)nn1C(=S)Nc1c(F)cccc1F` [Cdk1/2 Inhibitor III], the remaining activity at 1.25 µM in assay [1] (Well no.=2368, low concentration screen) was found to be 99.3%. For the same compound, the remaining activity at 3.75 µM in assay [2] (Well no.=2368, high concentration screen) is 102%.
As to `O=C1CN(/N=C/c2ccc(-c3ccc([N+](=O)[O-])cc3)o2)C(=O)N1` [Dantrolene sodium salt], the remaining activity at 1.25 µM in assay [1] (Well no.=5847, low concentration screen) turned out to be 104%. Moreover, in assay [2] (Well no.=5847, high concentration screen), the remaining activity at 3.75 µM worked out at 101%.
Turning to `C[C@H](O)C(=O)O` [L-Lactic acid], in assay [1] (Well no.=7395, low concentration screen), the remaining activity at 1.25 µM came out at 104%. Moreover, the remaining activity at 3.75 µM in assay [2] (Well no.=7395, high concentration screen) is 106%.
Turning to `O=C(CCCc1ccc(-c2ccccc2F)cc1)Nc1ccc(O)cc1` [MK2a Inhibitor], the remaining activity at 1.25 µM in assay [1] (Well no.=2548, low concentration screen) stood at 94.2%. In assay [2] (Well no.=2548, high concentration screen), the remaining activity at 3.75 µM amounted to 102%.
On to `CS(=O)(=O)N1CCN(Cc2cc3nc(-c4cccc5[nH]ncc45)nc(N4CCOCC4)c3s2)CC1` [GDC-0941], for which the remaining activity at 1.25 µM in assay [1] (Well no.=2801, low concentration screen) is 103%. For the same compound, in assay [2] (Well no.=2801, high concentration screen), the remaining activity at 3.75 µM was determined as 101%.
For the compound `c1ccc(NCc2ccc(CNc3ccccn3)cc2)nc1` [WZ811], the remaining activity at 1.25 µM in assay [1] (Well no.=7135, low concentration screen) was found to be 102%; in assay [1] (Well no.=8459, low concentration screen), 98.2%. The remaining activity at 3.75 µM in assay [2] (Well no.=7135, high concentration screen) came out at 96.2%; in assay [2] (Well no.=8459, high concentration screen), 88.4%.
As to `C[C@@H]1CCCN1CCc1cc2cc(-c3ccc(C#N)cc3)ccc2o1` [ABT-239], the remaining activity at 1.25 µM in assay [1] (Well no.=8049, low concentration screen) worked out at 103%. The remaining activity at 3.75 µM in assay [2] (Well no.=8049, high concentration screen) worked out at 101%.
Consider `Cc1ccccc1N(C)C(=O)c1ccc([S+]([O-])c2nccs2)c([N+](=O)[O-])c1` (stereo not shown) [SB-268262], for which the remaining activity at 1.25 µM in assay [1] (Well no.=5777, low concentration screen) came out at 99.5%. Moreover, in assay [2] (Well no.=5777, high concentration screen), the remaining activity at 3.75 µM was found to be 100%.
With `NC(N)=NCCCCN=C(N)N` [Arcaine sulfate], in assay [1] (Well no.=293, low concentration screen), the remaining activity at 1.25 µM came out at 99.2%. Moreover, the remaining activity at 3.75 µM in assay [2] (Well no.=293, high concentration screen) was 96.8%.
As for `CCCCC[C@H](O)/C=C/C=C/C/C=C\CCCC(=O)O` [12(S)-HHT], in assay [1] (Well no.=4234, low concentration screen), the remaining activity at 1.25 µM is 101%. Moreover, the remaining activity at 3.75 µM in assay [2] (Well no.=4234, high concentration screen) was found to be 103%.
With `CC1CNCCN1S(=O)(=O)c1cccc2cnccc12` (stereo not shown) [H-7 dihydrochloride], the remaining activity at 1.25 µM in assay [1] (Well no.=570, low concentration screen) was 95.5%. Further, in assay [2] (Well no.=570, high concentration screen), the remaining activity at 3.75 µM worked out at 95.4%.
With `Oc1ccc(-c2c(-c3ccccc3)nn3c(C(F)(F)F)cc(C(F)(F)F)nc23)cc1` [PHTPP], in assay [1], the remaining activity at 1.25 µM came out at 103%. Also, the remaining activity at 3.75 µM in assay [2] turned out to be 101%.
With `Nc1nccc(-c2c(-c3ccc(F)cc3)ncn2C2CCCCC2)n1` [4-[1-cyclohexyl-4-(4-fluorophenyl)-1H-imidazol-5-yl]-2-pyrimidinamine dihydrochloride], the remaining activity at 1.25 µM in assay [1] (Well no.=5961, low concentration screen) stood at 102%. For the same compound, the remaining activity at 3.75 µM in assay [2] (Well no.=5961, high concentration screen) stood at 102%.
As for `CCCCN1CCC(n2c(=O)[nH]c3ccccc32)CC1` [NS 521 oxalate], the remaining activity at 1.25 µM in assay [1] (Well no.=1003, low concentration screen) is 99.3%. Further, the remaining activity at 3.75 µM in assay [2] (Well no.=1003, high concentration screen) was 105%.
Regarding `CC[C@]1(O)C[C@@H]2CN(CCc3c([nH]c4ccccc34)[C@@](C(=O)OC)(c3cc4c(cc3OC)N(C)[C@H]3[C@@](O)(C(N)=O)[C@H](O)[C@]5(CC)C=CCN6CC[C@]43[C@@H]65)C2)C1` [Vindesine sulfate], the remaining activity at 1.25 µM in assay [1] (Well no.=2031, low concentration screen) came to 102%. Moreover, the remaining activity at 3.75 µM in assay [2] (Well no.=2031, high concentration screen) came to 103%.
For the compound `CN(C)CCCN1c2ccccc2CCc2ccc(Cl)cc21` [Clomipramine hydrochloride], the remaining activity at 1.25 µM in assay [1] (Well no.=328, low concentration screen) was 101%. Also, the remaining activity at 3.75 µM in assay [2] (Well no.=328, high concentration screen) was 98.6%.
On to `c1ccc2c(c1)OCC(CN1CCCCC1)O2` (stereo not shown) [Piperoxan (hydrochloride)], for which the remaining activity at 1.25 µM in assay [1] (Well no.=7383, low concentration screen) came to 106%. In addition, the remaining activity at 3.75 µM in assay [2] (Well no.=7383, high concentration screen) was determined as 105%.
On to `NC1CONC1=O` (racemic) [DL-Cycloserine], for which the remaining activity at 1.25 µM in assay [1] (Well no.=136, low concentration screen) is 109%. The remaining activity at 3.75 µM in assay [2] (Well no.=136, high concentration screen) is 108%.
On to `O=C(O)Cc1c[nH]c2ccc(O)cc12` [5-Hydroxyindolacetic acid], for which the remaining activity at 1.25 µM in assay [1] (Well no.=758, low concentration screen) turned out to be 91.7%. In addition, the remaining activity at 3.75 µM in assay [2] (Well no.=758, high concentration screen) turned out to be 92.8%.
In the case of `Cc1cccc(N(C)C(=S)Oc2ccc3ccccc3c2)c1` [Tolnaftate], in assay [1] (Well no.=4720, low concentration screen), the remaining activity at 1.25 µM turned out to be 105%. Also, the remaining activity at 3.75 µM in assay [2] (Well no.=4720, high concentration screen) came to 106%.
As for `O=C1N[C@H](C(=O)O)CS1` [Procysteine], the remaining activity at 1.25 µM in assay [1] (Well no.=3897, low concentration screen) stood at 104%. For the same compound, the remaining activity at 3.75 µM in assay [2] (Well no.=3897, high concentration screen) amounted to 103%.
Turning to `C[C@@H]1[C@H](O)[C@@H](C)/C=C/C=C/CC/C=C/C=C/C=C/C=C/[C@H](O[C@@H]2O[C@H](C)[C@@H](O)[C@H](N)[C@@H]2O)C[C@@H]2O[C@](O)(C[C@@H](O)[C@H](O)CC[C@@H](O)C[C@@H](O)C[C@@H](O)CC(=O)O[C@H]1C)C[C@H](O)[C@H]2C(=O)O` [Nystatin], the remaining activity at 1.25 µM in assay [1] (Well no.=2045, low concentration screen) was determined as 97.9%. Besides, the remaining activity at 3.75 µM in assay [2] (Well no.=2045, high concentration screen) worked out at 100%.
Turning to `CO[C@H]1CC[C@@H](C(=O)c2ccc3nc4c(cc3c2)CCCO4)CC1` [JNJ16259685], the remaining activity at 1.25 µM in assay [1] (Well no.=6955, low concentration screen) amounted to 100%. Further, the remaining activity at 3.75 µM in assay [2] (Well no.=6955, high concentration screen) amounted to 102%.
